Assays:
HUVECs = assay: Wound healing (scratch) migration assay; assay type: cell-based, human; settings: for wound closure: 12 h
Experimental: FIG. 4 represents In vitro wound closure assay showing effect of Compound 1 migration of HUVECs. (A) ECs were incubated with 2.5% FBS in the presence of VEGF, sunitinib and Compound 1 at the indicated concentrations for 24 h after linear scratched wounds were created in the confluent cells. Post treatment photographs were taken at 0 hr, 12 h and 24 h using an inverted microscope at 10×magnification. (B) Data were quantified using Image J software and graphs were plotted by calculating the % migration of that vehicle treated cells (control). Compound 1 inhibits the wound closure by ECs in a dose dependent manner. The values represent the mean±SEM from (n=3) independent experiments with significant difference compared from control at *p<0.05.
As per previous reports, some anti-angiogenic compounds also show anti-migratory effect by modulating the expression of proteins responsible for blood vessels formation. A Scratch was made to the confluent endothelial cells containing VEGF (50 ng/mL) and sunitinib (50 nM) as a positive and negative control respectively and Compound 1 at 250 nM and 125 nM as a test compound. […] This might contribute to its potent anti-angiogenic effect.
Endothelial cells were grown inside 6-well plate at a confluency rate of 90%. And then with the help of 200 μL tip a straight line scratch was made in the middle of the grown ECs. After giving a gentle wash with 1×PBS, control group received vehicle in 2.5% FBS media. VEGF at 50 ng/mL as a positive control and sunitinib at 50 nM concentration was used as a negative control. Compound 1 at a dose concentration of 250 nM and 125 nM were used onto the wounded cells to observe its anti-migratory effect. After 0 h, 12 h and 24 h of post treatment the wound closure area was observed and micrographed using an inverted microscope (Olympus, Centre Valley, Pa., USA) and were analysed by Image J software. Control well at 100% was used to express inhibition percentage and the assay was performed for three-five times independently.

[1] = Intramuscular pharmacokinetic study of bulk compound 1 and chiral isomers; assay type: in vivo, male Sprague Dawley (SD) rats; settings: IM 20 mg/kg
Experimental: In vivo pharmacokinetic study was performed in male Sprague Dawley (SD) rats (n=4). Intramuscular (IM) formulation of bulk of compound 1 as well as chiral isomer-1 and chiral isomer-2 was prepared by dissolving accurately weighed quantity of compound 1 (20 mg) in 1 mL of olive oil followed by vortexing for 2 min and sterilize through syringe filter. Blood samples were collected from the retro orbital plexus of rats under light ether anesthesia into microfuge tubes containing heparin as an anti-coagulant at 0.25, 0.5, 1, 3, 5, 7, 9, 24, 30, 48 and 72 hours post-dosing after intramuscular dose. Plasma sample was harvested by centrifuging the blood at 13000 rpm for 10 min on Sigma 1-15 K (Frankfurt, Germany) and stored frozen at −70±10° C. until bioanalysis. Each plasma sample (100 μl) was processed using protein precipitation method using 200 μl acetonitrile containing medicarpine as internal standard (I.S.) as protein precipitant, and 10 μl of the supernatant was injected for LC-MS/MS.

HCT116 colon tumor = HCT116 colon tumor model in nude mice; assay type: in vivo
Experimental: FIG. 12 represents Compound 1 inhibited tumor growth in vivo. Tumor sizes were recorded every alternate day by Vernier caliper measurements and calculated as [4/3*[…]*(length/2)*(width/2)]. (A) Nude mice with induced HCT116 tumor were given vehicle to the control group, sunitinib at (40 mg/kg) as a standard drug given orally and Compound 1 at (25 mg/kg) through IP route for 21 days and tumor regression was calculated for all groups. (B) Nude Mice with induced HCT116 colon tumor were given both, sunitinib and Compound 1 at (25 mg/kg) intra-muscularly for 15 days after attaining a tumor size of 100 mm^3, tumor volume reduction for treated groups were calculated and compared with control. Data are expressed as means±S.E.M. (6 mice/group) with significant difference compared with control at p<0.0001.
HCT 116 (Human colon cancer cell line) cells were trypsinised and the pellet was dissolved in ice chilled 1×PBS. HCT 116 cells suspension to a concentration of (1*10^6) cells in 50 μL PBS solution, were left on ice with occasional agitation. Mice were anaesthetized with ketamine: xylazine (100:10 mg/kg), abdominal side area was shaved and sterilized using 70% ethanol. 50 μL of cell suspension was injected slowly subcutaneously to all the mice. After 2 days, booster dose of tumor cells was injected to all mice as performed previously. The growth of the tumor was measured by using vernier caliper on day 2, 4, 6, 8, 10, 12, 14, 16 18, 20, 23 and presented in the form of tumor volume (mm^3)=[4/3*π*(long axis/2)*(short axis/2)]. After attaining a volume of 100 mm^3 of tumor size, all mice were distributed equally (n=6−8) in 3 groups of controls received vehicle (Olive oil). Sutent (25 mg/kg) as a positive control was given orally and Compound 1 (25 mg/kg) dissolved in olive oil was injected intra-muscularly for 15 days and the tumor size regression was measured on every alternate day as described previously. Post 15 days of treatment, mice from all groups were sacrificed and tumor was excised out and processed further for immunohistochemistry and molecular analysis.

[2] = male, Sprague-Dawley, rat, plasma, mean ± S.D., n = 4

With `CCOC(=O)C1N=C1CCc1ccc(OC)cc1` (racemic) [Compound 1, Ethyl 3-(4-methoxyphenethyl)-2H-azirine-2-carboxylate] the wound closure (HUVECs; 125 nM) was 75%, the wound closure (HUVECs; 250 nM) was 60% and the migration (HUVECs; 24 h) was “complete migration”. It also gave a Cl ([1]; mean ± S.D., n = 4) of 3.4 ± 0.327 mL/min/kg, a Vd ([1]; mean ± S.D., n = 4) of 4.017 ± 0.868 L/kg and a concentration at 0.25 h ([1]; male, Sprague-Dawley, rat, plasma, intramuscular, 0.25 h) of 2910 ± 950 ng/mL. For the same molecule, the concentration at 0.5 h ([1]; male, Sprague-Dawley, rat, plasma, intramuscular, 0.5 h) was 4440 ± 460 ng/mL, the concentration at 1 h ([1]; male, Sprague-Dawley, rat, plasma, intramuscular, 1 h) was 3930 ± 1200 ng/mL and the concentration at 3 h ([1]; male, Sprague-Dawley, rat, plasma, intramuscular, 3 h) was 3240 ± 240 ng/mL. For the same molecule, the concentration at 5 h ([1]; male, Sprague-Dawley, rat, plasma, intramuscular, 5 h) was 2830 ± 320 ng/mL, the concentration at 7 h ([1]; male, Sprague-Dawley, rat, plasma, intramuscular, 7 h) was 2390 ± 530 ng/mL and the concentration at 9 h ([1]; male, Sprague-Dawley, rat, plasma, intramuscular, 9 h) was 3210 ± 810 ng/mL. The concentration at 24 h ([1]; male, Sprague-Dawley, rat, plasma, intramuscular, 24 h) was 1740 ± 240 ng/mL, the concentration at 30 h ([1]; male, Sprague-Dawley, rat, plasma, intramuscular, 30 h) was 1660 ± 230 ng/mL and the concentration at 48 h ([1]; male, Sprague-Dawley, rat, plasma, intramuscular, 48 h) was 262 ± 120 ng/mL. For the same molecule, the concentration at 72 h ([1]; male, Sprague-Dawley, rat, plasma, intramuscular, 72 h) was 107 ± 10 ng/mL, the AUC(0-inf) [1, 2] was 98600 ± 9400 ng·h/mL and the half-life [1, 2] was 13.5 ± 1.7 h. The AUC(0-t) ([1]; male, Sprague-Dawley, rat, plasma, mean ± S.D., n = 4, read-out: AUC0-72) was 96400 ± 9850 ng·h/mL, the Cmax ([1]; male, Sprague-Dawley, rat, plasma, mean ± S.D., n = 4, read-out: Cmax) was 4620 ± 435 ng/mL and the MRT ([1]; male, Sprague-Dawley, rat, plasma, mean ± S.D., n = 4, read-out: MRT) was 18 ± 1.57 h. The Tmax ([1]; male, Sprague-Dawley, rat, plasma, mean ± S.D., n = 4, read-out: Tmax) was 0.667 ± 0.288 h, the tumor volume (HCT116 colon tumor; 25 mg/kg IP route for 21 days, vs vehicle) was “progressive significant decrease in tumor volume” and the “growth of HCT116 cells xenografts” value (HCT116 colon tumor; 25 mg/kg, 15 days) was “powerful inhibitory effect”. For the same molecule, the T/C (HCT116 colon tumor; 25 mg/kg, day 2) was 94.77%, the T/C (HCT116 colon tumor; 25 mg/kg, day 4) was 72.79% and the T/C (HCT116 colon tumor; 25 mg/kg, day 6) was 67.93%. It also gave a T/C (HCT116 colon tumor; 25 mg/kg, day 8) of 66.22%, a T/C (HCT116 colon tumor; 25 mg/kg, day 10) of 68.70% and a T/C (HCT116 colon tumor; 25 mg/kg, day 12) of 56.83%. The T/C (HCT116 colon tumor; 25 mg/kg, day 14) was 49.80%, the T/C (HCT116 colon tumor; 25 mg/kg, day 16) was 43.88% and the “vascular density in tumor tissues (CD31)” value (HCT116 colon tumor; 25 mg/kg, vs control group) was “reduced the vascular density in tumor tissues”. For the same molecule, the tumor reduction (HCT116 colon tumor; in comparison to vehicle treated control group, end of experiment) was 62.02%.
